Patent US20140193802A1, “IDENTIFICATION OF AN ALTERED THERAPEUTIC SUSCEPTIBILITY TO ANTI-HCMV COMPOUNDS AND OF A RESISTANCE AGAINST ANTI-HCMV COMPOUNDS” (priority 2012, published 2014)
Read-outs that look alike come from different tables or passages of the source.

Columns and labels:
Assay type in all cases: cell-based, human cytomegalovirus (HCMV)
[1] = test system: RV-HG UL56-C325Yrev; test: GFP-RA, marker transfer revertant; conditions: Human betaherpesvirus 5
Method: (§1) HCMV Fluorescence Reduction Assay (GFP-RA)
(§2) The susceptibilities of recombinant HCMV laboratory strains expressing GFP were determined by a GFP-based fluorescence reduction assay. For standard assays, 1.5×10^4 NHDF cells/well were cultured in black 96-well plates (Greiner Bio-One, Germany) and infected with either HCMV-GFP (MOI, 0.1) or RV-HG (MOI, 0.2 to 0.5). After virus adsorption, the virus inoculum was replaced with 200 μl fresh medium. Thereafter, 100 μl medium containing the test compounds was added to wells of horizontal row G, followed by serial 3-fold dilutions up to row A. All drug concentrations were tested at least in duplicate. Wells of the horizontal row H served as the virus control. Plates were incubated at 37° C. for 7 days. The medium was replaced by 200 μl PBS, and GFP units (GFPU) were determined by a charge-coupled-device-camera-based fluorescence detector (FluoBox; Bayer Technology Services GmbH, Leverkusen, Germany), which captures 96 images simultaneously. Drug effects were calculated as a percentage of reduction in GFPU in the presence of each drug concentration compared to the GFPU determined in the absence of drug. EC50 and EC90 values (drug concentrations producing 50% and 90% reduction in GFPU) were calculated using nonlinear regression curve fit with a variable slope. GraphPad Prism 3.02 or 4.0 software (GraphPad Software Inc., La Jolla, Calif.) was used for all analyses.
(§3) The HCMV AD169-derived bacterial artificial chromosome (BAC) pHG served as the backbone for the construction of the mutant viruses. The markerless introduction of point mutations into pHG was done using a two-step recombination protocol according to the en passant method. Briefly, a recombination fragment containing the I-SceI-AphAI cassette from plasmid pEPKan-S was obtained by PCR using primers containing ˜60 bp of homology to the intended integration site in ORF UL56 of BAC pHG and ˜20 bp specific for pEPKan-S. This fragment was electroporated into Escherichia coli GS1783 that harbored the pHG BAC. […] After successful kanamycin selection, all non-HCMV sequences were removed by an intrabacterial ISceI digest and a subsequent second Red recombination, resulting in the scarless repair of the mutated UL56 gene in the background of BAC pHG. The integrity of the generated BACs was confirmed by restriction enzyme digestion and sequencing. To reconstitute virus mutants, the recombinant BACs were transfected into permissive MRC5 cells. At least two independent virus clones per mutation were generated and evaluated.

[2] = test system: RV-HG-UL56 mutants; test: GFP-RA, drug susceptibility profile of the virus mutants; conditions: fluorescence reduction assays; for BAY 38-4766 and BDCRB with the exception of the strain carrying UL56 R369M
Method: as §1, §2
as §3, with “The integrity of the generated BACs was confirmed by restriction enzyme digestion and sequencing.” left out

[3] = test system: RV-HG (wt-HCMV); test: HCMV fluorescence reduction assay (GFP-RA); conditions: Human betaherpesvirus 5
Method: as §1, §2, §3

| SMILES | EC50 [1] | sensitivity of the RV-HG-UL56 mutants compared with the parental wild-type virus RV-HG [2] | EC50 [3] | EC50 ([1]; RV-HG UL56-C325Yrev, fluorescence reduction assay, mean ± SD, read-out: EC50) | EC50 ([3]; RV-HG (wt-HCMV), fluorescence reduction assay, mean ± SD, read-out: EC50) |
| --- | --- | --- | --- | --- | --- |
| Nc1nc(O)c2ncn(COC(CO)CO)c2n1 [Ganciclovir] | 2.83 ± 0.81 µM | did not differ | 2.21 ± 0.99 µM | – | – |
| COc1cccc(N2CCN(C3=Nc4c(F)cccc4[C@H](CC(=O)O)N3c3cc(C(F)(F)F)ccc3OC)CC2)c1 [Letermovir, (S)-{8-fluoro-2-[4-(3-methoxyphenyl)-1-piperazinyl]-3-[2-methoxy-5-(trifluoromethyl)phenyl]-3,4-dihydro-4-quinazolinyl}acetic acid] | – | resistant | – | 0.0039 ± 0.0009 µM | 0.003 ± 0.0012 µM |
